Three molecules from ChEMBL document CHEMBL1201862, “PubChem BioAssay data set” (2004) can be followed below.

Molecules are shown by their SMILES. Active and inactive are the calls of the source.

By AC50 is commonly meant the concentration at which the activity in the assay is half-maximal. In general, EC50 refers to the concentration needed to bring the measured effect to its halfway point. Broadly, the IC50 is the midpoint of a concentration-inhibition curve. For orientation: CC50 means the concentration giving 50% cytotoxicity.

In data set [1] the target is T1, Cytochrome P450 1A2 (Homo sapiens, UniProt P05177).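 Note: PubChem cytochrome P450 panel assay, CYP1A2 panel member.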
T1 sequence (P05177 whole entry): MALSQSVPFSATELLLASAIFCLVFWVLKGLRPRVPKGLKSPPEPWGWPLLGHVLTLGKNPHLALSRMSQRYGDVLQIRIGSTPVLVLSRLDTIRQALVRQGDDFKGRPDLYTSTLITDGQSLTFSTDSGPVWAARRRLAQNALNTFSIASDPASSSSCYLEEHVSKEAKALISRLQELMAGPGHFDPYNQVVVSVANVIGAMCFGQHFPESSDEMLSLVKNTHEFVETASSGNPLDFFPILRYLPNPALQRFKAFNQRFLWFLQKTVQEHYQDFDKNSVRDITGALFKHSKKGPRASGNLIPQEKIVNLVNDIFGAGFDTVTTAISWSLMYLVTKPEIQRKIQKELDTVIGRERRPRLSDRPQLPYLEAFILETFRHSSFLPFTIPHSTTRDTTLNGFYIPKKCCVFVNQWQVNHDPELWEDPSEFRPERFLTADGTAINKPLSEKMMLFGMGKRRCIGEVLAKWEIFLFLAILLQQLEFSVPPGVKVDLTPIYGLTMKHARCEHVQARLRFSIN

Data set [2] deals with Streptococcus sp. 'group A'. Nature of the data set: growth inhibition of control SK(-) GAS strain, dose response, counter-screen for streptokinase expression inhibitor project, luminescence, kanamycin, BacTiterGlo, confirmation (AID 1900). It is filed as functional, organism-based. A general note: Counterscreens check selectivity or assay interference.
Data set [3] concerns BJ. Nature of the data set: cytotoxicity toward BJ-TERT fibroblasts, dose response, cell-based, RAS-independent, luminescence (AID 1933). It is filed as functional. Conditions: Homo sapiens.
For data set [4], the target named is T2, Streptokinase A (Streptococcus pyogenes serotype M1, UniProt P10520).
T2 sequence (P10520 whole entry): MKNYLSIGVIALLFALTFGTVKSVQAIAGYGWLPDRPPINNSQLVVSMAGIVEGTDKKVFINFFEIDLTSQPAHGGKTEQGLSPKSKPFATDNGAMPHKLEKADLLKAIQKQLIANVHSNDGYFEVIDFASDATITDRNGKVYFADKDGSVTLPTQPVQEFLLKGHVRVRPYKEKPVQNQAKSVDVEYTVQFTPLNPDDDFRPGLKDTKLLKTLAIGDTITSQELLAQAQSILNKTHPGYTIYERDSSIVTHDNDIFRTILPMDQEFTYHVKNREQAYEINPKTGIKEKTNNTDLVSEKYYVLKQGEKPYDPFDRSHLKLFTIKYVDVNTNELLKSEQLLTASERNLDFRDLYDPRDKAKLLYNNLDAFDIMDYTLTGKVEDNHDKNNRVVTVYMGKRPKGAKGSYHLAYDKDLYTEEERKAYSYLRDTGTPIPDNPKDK
Nature of the data set: S. pyogenes streptokinase expression inhibitors, potency, dose response, plasminogen activation absorbance, OD405 (AID 1914).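 Note: secreted streptokinase activity via plasminogen activation per viability signal from cell pellet.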 It is filed as functional, Streptococcus pyogenes M1 GAS.

Data set [5] has as its system BJ. Nature of the data set: cells. It is filed as functional, cell-based. Conditions: Homo sapiens.
The test system of data set [6] is BJ. Put plainly: cytotoxicity toward BJ-TERT-LT-ST fibroblasts, dose response, cell-based, RAS-independent, luminescence (AID 1935).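 Note: BJ fibroblasts immortalized with TERT plus LT and ST oncogenes.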 It is filed as functional. Conditions: Homo sapiens.
Data set [7] can be described thus: cytotoxicity toward DRD oncogenic fibroblasts, dose response, cell-based, non-viral oncogenic, luminescence (AID 1934). The conditions noted are these: Homo sapiens. It is filed as functional.
Data set [8] deals with Streptococcus. Nature of the data set: Group A Streptococcus viability loss, dose response, counter-screen for streptokinase expression inhibitor project, luminescence, BacTiterGlo (AID 1915).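 Note: potency for reduction of bacterial viability or growth.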 It is filed as functional, organism-based.
Data set [9] deals with Jurkat. Nature of the data set: antigen receptor-induced NF-kB inhibitors, dose response, Jurkat, luciferase reporter, luminescence, B- and T-cell (AID 489004).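 Note: NF-kB luciferase reporter Jurkat cells stimulated with PMA plus ionomycin.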 It is filed as functional, cell-based. The conditions noted are these: Homo sapiens. For orientation: In a reporter assay the amount or activity of a reporter protein is the signal.
The nature of data set [10]: cytotoxicity in HEK-293T NF-kB-Luc cells, dose response, cytotoxicity control for B/T-cell NF-kB inhibitor project, cell-based, uHTS hits (AID 489019).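 Note: IC50 reflects cytotoxicity as loss of cell viability.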 It is filed as functional.
Data set [11] has as its target Heat shock protein HSP 90-alpha (Homo sapiens, UniProt P07900). It is filed as functional, organism-based.
The test system of data set [12] is BJ. Put plainly: cytotoxicity toward Ras-transformed BJeLR fibroblasts, dose response, cell-based, alamar blue fluorescence, cherrypicked samples (AID 2631).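 Note: confirmatory dose-response assay in RAS-dependent BJ fibroblasts engineered with TERT, LT and ST, with cytotoxicity read by fluorescence.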 It is filed as functional. Conditions: Homo sapiens. On the technique in general: Resazurin is reduced to fluorescent resorufin, in cell work by metabolically active cells.
For data set [13], the system named is INS1. Put plainly: beta cell apoptosis inhibitors, cytokine rescue, dose response, luminescence, retest (AID 449756).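 Note: cell death triggered by IL-1 beta plus TNF-alpha plus IFN-gamma mixture; protective hits raise ATP signal compared with cytokine alone wells.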 It is filed as functional, cell-based. The conditions noted are these: Rattus norvegicus.
Data set [14] concerns the target Galanin receptor type 3 (Homo sapiens, UniProt O60755). Nature of the data set: Fluorescence-based cell-based primary high throughput dose response assay to identify antagonists of the Galanin Receptor 3 (GalR3). It is filed as functional.
Data set [15] is described as follows: cells. It is filed as functional, cell-based. Conditions: HEK-CNG.
The target of data set [16] is T3, DNA repair protein RAD52 homolog (Homo sapiens, UniProt P43351).
T3 sequence (P43351 whole entry): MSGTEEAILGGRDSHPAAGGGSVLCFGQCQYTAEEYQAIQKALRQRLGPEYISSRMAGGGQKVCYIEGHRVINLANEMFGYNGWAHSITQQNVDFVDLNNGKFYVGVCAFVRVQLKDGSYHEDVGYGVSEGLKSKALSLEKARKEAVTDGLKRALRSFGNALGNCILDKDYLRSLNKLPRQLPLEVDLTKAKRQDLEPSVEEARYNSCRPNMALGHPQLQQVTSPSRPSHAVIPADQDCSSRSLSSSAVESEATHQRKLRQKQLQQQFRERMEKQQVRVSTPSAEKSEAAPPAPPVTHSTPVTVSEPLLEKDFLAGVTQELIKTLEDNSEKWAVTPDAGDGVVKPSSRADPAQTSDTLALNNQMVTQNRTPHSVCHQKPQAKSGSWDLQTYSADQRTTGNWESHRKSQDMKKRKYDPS
It is filed as functional, biochemical.

Data set [17] concerns the target Paired box protein Pax-8 (Homo sapiens, UniProt Q06710). Nature of the data set: inhibitors of PAX8-driven TPO luciferase reporter, dose response, RMG-I cells, cherry-pick (AID 687027).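 Note: luciferase reporter driven by Pax8 target thyroperoxidase promoter measured by SteadyGlo luminescence.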 It is filed as functional, cell-based.
Data set [18] can be described thus: NIH-3T3 fibroblast cytotoxicity, dose response, cytotoxicity control, cell-based, fluorescence, Alamar Blue, secondary assay (AID 2327).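 Note: NIH-3T3 mouse fibroblasts cultured with fluconazole at 8 µg/mL.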 It is filed as functional.
Data set [19] in a line: C. albicans growth with fluconazole, confirmation, fluorescence, retest (AID 2467). It is filed as functional, cell-based.
Data set [20] addresses T4, Estrogen receptor (Homo sapiens, UniProt P03372).
T4 sequence (P03372 whole entry): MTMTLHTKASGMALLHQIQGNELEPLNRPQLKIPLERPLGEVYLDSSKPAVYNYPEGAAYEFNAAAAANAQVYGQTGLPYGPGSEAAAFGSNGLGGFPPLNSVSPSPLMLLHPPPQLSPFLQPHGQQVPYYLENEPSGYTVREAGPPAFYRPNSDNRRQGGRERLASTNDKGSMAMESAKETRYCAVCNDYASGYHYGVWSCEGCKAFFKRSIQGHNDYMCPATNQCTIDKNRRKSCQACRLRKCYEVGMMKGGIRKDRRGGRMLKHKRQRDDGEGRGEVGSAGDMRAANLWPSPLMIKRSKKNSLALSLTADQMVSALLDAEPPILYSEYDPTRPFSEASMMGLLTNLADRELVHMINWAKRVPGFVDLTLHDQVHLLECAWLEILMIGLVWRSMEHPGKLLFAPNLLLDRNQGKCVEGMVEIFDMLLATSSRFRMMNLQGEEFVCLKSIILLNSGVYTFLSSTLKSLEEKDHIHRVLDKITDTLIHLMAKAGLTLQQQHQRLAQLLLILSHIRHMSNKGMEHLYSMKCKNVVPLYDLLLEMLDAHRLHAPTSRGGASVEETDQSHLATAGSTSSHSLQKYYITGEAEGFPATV

Data set [21] can be described thus: THP-1 cell cytotoxicity, dose response, cytotoxicity control for non-replicating M. tuberculosis project (AID 489025). It is filed as functional.
Data set [22] can be described thus: HepG2 cell cytotoxicity, dose response, cytotoxicity control for non-replicating M. tuberculosis project (AID 489018). It is filed as functional. The conditions noted are these: Mycobacterium tuberculosis.
Data set [23] can be described thus: Vero E6 cell cytotoxicity, dose response, cytotoxicity control for non-replicating M. tuberculosis project, secondary assay (AID 492998). The conditions noted are these: Vero C1008. It is filed as functional, VeroE6.
Data set [24] in a line: cells. It is filed as functional.
Data set [25] concerns the target Dual specificity protein phosphatase 3 (Homo sapiens, UniProt P51452). Nature of the data set: SAR VHR1 Fluorescent Assay for In Vitro dose response studies Set 3. [Related pubchem assays (depositor defined):AID1654, AID1661, AID1878]. It is filed as functional.

Chain of Paired box protein Pax-8 (Q06710 whole entry): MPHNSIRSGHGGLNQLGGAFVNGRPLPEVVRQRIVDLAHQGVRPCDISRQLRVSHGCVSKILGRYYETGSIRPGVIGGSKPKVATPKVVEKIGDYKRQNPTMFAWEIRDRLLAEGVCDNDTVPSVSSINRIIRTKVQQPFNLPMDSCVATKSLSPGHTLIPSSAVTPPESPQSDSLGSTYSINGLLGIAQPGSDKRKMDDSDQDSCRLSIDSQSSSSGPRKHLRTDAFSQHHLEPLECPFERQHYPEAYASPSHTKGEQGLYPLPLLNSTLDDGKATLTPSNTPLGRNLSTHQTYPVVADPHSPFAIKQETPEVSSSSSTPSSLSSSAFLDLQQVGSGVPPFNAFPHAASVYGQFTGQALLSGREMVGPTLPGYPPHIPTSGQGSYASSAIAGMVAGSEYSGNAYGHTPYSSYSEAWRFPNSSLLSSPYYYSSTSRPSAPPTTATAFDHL
Chain of Dual specificity protein phosphatase 3 (P51452 whole entry): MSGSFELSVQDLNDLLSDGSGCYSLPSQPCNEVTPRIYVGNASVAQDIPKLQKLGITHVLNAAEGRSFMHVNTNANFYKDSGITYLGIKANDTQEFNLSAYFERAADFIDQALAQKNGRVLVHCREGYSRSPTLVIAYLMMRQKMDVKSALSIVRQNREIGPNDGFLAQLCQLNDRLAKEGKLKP
Chain of Galanin receptor type 3 (O60755 whole entry): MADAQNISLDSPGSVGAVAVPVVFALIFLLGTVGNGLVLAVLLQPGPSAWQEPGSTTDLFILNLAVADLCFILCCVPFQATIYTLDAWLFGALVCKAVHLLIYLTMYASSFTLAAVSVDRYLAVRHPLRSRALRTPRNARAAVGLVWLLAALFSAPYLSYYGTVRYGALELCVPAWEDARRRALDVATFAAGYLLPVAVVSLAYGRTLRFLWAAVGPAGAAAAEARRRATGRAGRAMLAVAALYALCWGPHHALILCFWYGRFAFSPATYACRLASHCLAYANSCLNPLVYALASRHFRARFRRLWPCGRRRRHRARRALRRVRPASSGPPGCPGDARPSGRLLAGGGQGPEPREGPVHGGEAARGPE

With `N[C@H](C(=O)O)c1nnn[nH]1`, in data set [1], the AC50 result was “inconclusive”.

Regarding `CCCCCCCCCCCCn1ccc(=N)cc1`, the EC50 in data set [2] was 3.09 µM (active); in data set [3], 2.72 µM (active); in [4], 17.6 µM (active); in data set [5], 2.85 µM (inconclusive); in data set [6] it was 5.37 µM (inconclusive); in [7], 8.01 µM (active). For the same molecule, the EC50 in [8] was 10.3 µM (active); in [12], 0.949 µM (active); in data set [15], > 29.9 µM (inactive). The results for the IC50 in data set [9], in data set [10] and in data set [14] were 0.92 µM (active), 66.1 µM (inactive) and 1.28 µM (active), respectively. Moreover, the AC50 is 10.8 µM (active) in data set [11], 0.293 µM (active) in [13], 14.8 µM (active) in data set [16] and 3.74 µM (active) in [17].

Turning to `COc1cccc2sc(Nc3nnc(-c4ccc(F)cc4)o3)nc12`, the EC50 in [18] was > 160 µM (inconclusive); in data set [2] it was 0.29 µM (active); in data set [19], 1.72 µM (active); in [8], 2.25 µM (active). Also, the IC50 in data set [20] was 25 µM (active); in data set [24] it was 15.3 µM (active); in [25], 7.3 µM (active). The results for the CC50 in data set [21], in data set [22] and in [23] were 14.5 µM (active), > 20 µM (active) and 9.26 µM (active), respectively.
